Experimental data taken from patent US10975084B2, “KDM5 inhibitors” (Merck Sharp & Dohme Corp., priority 2016, dated 2021).

What follows are compounds tested against KDM5B (Homo sapiens (Human), UniProt Q9UGL1) (assay: KDM5B TR-FRET Enzyme Activity Assay). Details: LANCE TR-FRET; 5 nM full-length recombinant KDM5B; ten point titration 100000 nM to 5.08 nM.
Assay type: biochemical
Description: KDM5B TR-FRET Enzyme Activity Assay
KDM5B enzymatic activity was determined with the LANCE (Lanthanide Chelate Excite) TR-FRET (Time-resolved fluorescence resonance energy transfer) assay. […] To each well of a white Greiner 1536 Lumitrac 1536 well-plate, 50 nL of compound (100 fold dilution in final assay volume of 5 μL) was dispensed, followed by the addition of 4 μL of 1× assay buffer (50 mM Hepes 7.3, 0.5 mM TCEP, 0.005% Brij-35, 0.02% BSA, 50 μM Na-L-Ascorbate and 2 μM AmFe(II)Sulfate) containing 5 nM of Full-length KDM5B enzyme (recombinant protein from baculovirus-transfected Sf21 cells: full-length KDM5B; MW=176.825 kDa). Following a 30 minutes compound and enzyme incubation in a humidified chamber, each reaction was initiated by the addition of 1 μL 1× assay buffer containing […] biotinylated H3K4Me3 peptide, and 500 nM α-ketoglutarate. The final reaction in each well of 5 μL consists of 5 nM KDM5B, 500 nM biotinylated-peptide, and 500 nM α-ketoglutarate. De-methylation reactions were allowed to proceed for 60 minutes. Reactions were immediately quenched by the addition of 5 uL of 2× Lance Detection Buffer (PerkinElmer) with 0.5 mM EDTA and 2 nM of Eu-anti-H3K4Me1-2 antibody, and 30 nM of Streptavidin-conjugated Dylight 650 detection reagents. After 60 minutes incubation with detection reagents, reaction plates were read on a PerkinElmer EnVision plate reader using standard TR-FRET protocol. Briefly, excitation of donor molecules (Eu-chelate-anti-H3K4Me1-2-antibody) with a laser light source at 337 nm produces energy that can be transferred to Dylight-650 acceptor molecules if this donor:acceptor pair is within close proximity. Fluorescence intensity at both 665 nm (acceptor) and 615 nm (donor) are measured and a TR-FRET ratio calculated for each well (acceptor intensity/donor intensity). IC50 values were determined by 4 parameter robust fit of TR-FRET ratio values vs. (Log 10) compound concentrations.

KDM5B, sequence (Q9UGL1 whole entry): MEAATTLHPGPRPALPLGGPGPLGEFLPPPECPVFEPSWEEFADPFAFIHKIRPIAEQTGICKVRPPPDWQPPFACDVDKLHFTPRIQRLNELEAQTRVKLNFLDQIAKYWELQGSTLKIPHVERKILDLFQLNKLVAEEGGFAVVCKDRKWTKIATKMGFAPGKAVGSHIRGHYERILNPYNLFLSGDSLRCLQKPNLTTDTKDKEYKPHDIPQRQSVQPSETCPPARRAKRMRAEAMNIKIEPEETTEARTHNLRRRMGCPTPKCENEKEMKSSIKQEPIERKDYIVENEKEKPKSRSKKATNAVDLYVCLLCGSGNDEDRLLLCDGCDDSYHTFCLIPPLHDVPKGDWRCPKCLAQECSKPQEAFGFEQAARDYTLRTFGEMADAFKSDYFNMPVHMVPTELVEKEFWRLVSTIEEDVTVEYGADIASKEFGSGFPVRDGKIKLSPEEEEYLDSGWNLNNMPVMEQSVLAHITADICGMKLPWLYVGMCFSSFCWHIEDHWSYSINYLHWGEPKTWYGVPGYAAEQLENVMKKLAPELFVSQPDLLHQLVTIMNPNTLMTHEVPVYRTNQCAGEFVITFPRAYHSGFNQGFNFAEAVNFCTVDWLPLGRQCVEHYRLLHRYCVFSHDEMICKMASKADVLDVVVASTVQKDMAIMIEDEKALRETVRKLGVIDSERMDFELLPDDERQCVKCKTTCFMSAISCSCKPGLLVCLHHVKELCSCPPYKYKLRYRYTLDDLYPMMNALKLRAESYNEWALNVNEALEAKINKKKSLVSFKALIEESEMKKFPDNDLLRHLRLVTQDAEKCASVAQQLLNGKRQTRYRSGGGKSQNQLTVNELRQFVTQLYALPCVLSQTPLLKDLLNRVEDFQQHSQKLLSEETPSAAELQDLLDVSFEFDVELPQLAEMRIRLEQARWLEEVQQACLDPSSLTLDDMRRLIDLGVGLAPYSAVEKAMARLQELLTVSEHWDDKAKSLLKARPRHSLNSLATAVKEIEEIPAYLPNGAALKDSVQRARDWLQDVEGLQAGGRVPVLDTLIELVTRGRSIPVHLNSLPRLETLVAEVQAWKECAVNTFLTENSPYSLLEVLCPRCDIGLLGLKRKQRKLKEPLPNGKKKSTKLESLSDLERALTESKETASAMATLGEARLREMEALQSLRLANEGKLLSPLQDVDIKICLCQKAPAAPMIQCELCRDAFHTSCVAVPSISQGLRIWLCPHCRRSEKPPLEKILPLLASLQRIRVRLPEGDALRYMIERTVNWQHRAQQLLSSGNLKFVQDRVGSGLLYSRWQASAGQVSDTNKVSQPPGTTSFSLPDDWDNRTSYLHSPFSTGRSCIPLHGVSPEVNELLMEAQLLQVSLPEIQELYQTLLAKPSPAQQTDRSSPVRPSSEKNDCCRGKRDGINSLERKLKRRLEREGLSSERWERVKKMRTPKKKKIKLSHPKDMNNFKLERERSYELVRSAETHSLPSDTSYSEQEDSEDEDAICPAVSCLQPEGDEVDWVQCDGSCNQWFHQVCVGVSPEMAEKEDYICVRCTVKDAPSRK

SMILES | IC50
O=c1cc(C(F)(F)F)[nH]c2ncnn12 [Example 8-3, 5-(trifluoromethyl)[1,2,4]triazolo[1,5-a]pyrimidin-7(4H)-one] | 13.4 µM
Cc1cc(=O)n2ncnc2[nH]1 [Example 8-4, 5-methyl-[1,2,4]triazolo[1,5-a]pyrimidin-7(4H)-one] | 26.4 µM
O=c1cc(-c2ccccc2)[nH]c2ncnn12 [Example 8-5, 5-phenyl-[1,2,4]triazolo[1,5-a]pyrimidin-7(4H)-one] | 2.24 µM
CCCc1cc(=O)n2ncnc2[nH]1 [Example 8-6] | 47.6 µM
COC(=O)Cc1c(C)[nH]c2ncnn2c1=O [Example 8-7, methyl (5-methyl-7-oxo-4,7-dihydro[1,2,4]triazolo[1,5-a]pyrimidin-6-yl)acetate] | 21.3 µM
O=c1cc(-c2ccc(F)cc2)[nH]c2ncnn12 [Example 8-8, 5-(4-fluorophenyl)[1,2,4]triazolo[1,5-a]pyrimidin-7(4H)-one] | 1.3 µM
CCc1cc(=O)n2ncnc2[nH]1 [Example 8-9, 5-ethyl-[1,2,4]triazolo[1,5-a]pyrimidin-7(4H)-one] | 21.8 µM
CCOC(=O)c1[nH]c2ncnn2c(=O)c1Cl [Example 8-10, ethyl 6-chloro-7-oxo-4,7-dihydro[1,2,4]triazolo[1,5-a]pyrimidine-5-carboxylate] | 6.28 µM
CCOC(=O)c1[nH]c2ncnn2c(=O)c1C [Example 8-11, ethyl 6-methyl-7-oxo-4,7-dihydro[1,2,4]triazolo[1,5-a]pyrimidine-5-carboxylate] | 6.75 µM
Cc1[nH]c2ncnn2c(=O)c1C(C)C [Example 8-12, 5-methyl-6-(1-methylethyl)[1,2,4]triazolo[1,5-a]pyrimidin-7(4H)-one] | 0.474 µM
Cn1ccc(-c2cc(=O)n3ncnc3[nH]2)n1 [Example 8-13, 5-(1-methyl-1H-pyrazol-3-yl)[1,2,4]triazolo[1,5-a]pyrimidin-7(4H)-one] | 29.2 µM

Now from value to compound:

IC50 | SMILES
1.59 µM | CCc1c(C(F)(F)F)[nH]c2ncnn2c1=O [Example 8-16, 6-ethyl-5-(trifluoromethyl)[1,2,4]triazolo[1,5-a]pyrimidin-7(4H)-one]
25.7 µM | O=c1c(F)c(C(F)(F)F)[nH]c2ncnn12 [Example 8-17, 6-fluoro-5-(trifluoromethyl)[1,2,4]triazolo[1,5-a]pyrimidin-7(4H)-one]
31.9 µM | CCc1[nH]c2ncnn2c(=O)c1C [Example 8-18, 5-ethyl-6-methyl[1,2,4]triazolo[1,5-a]pyrimidin-7(4H)-one]
1.53 µM | CC(C)n1cc(-c2cc(=O)n3ncnc3[nH]2)cn1 [Example 8-19, 5-[1-(1-methylethyl)-1H-pyrazol-4-yl][1,2,4]triazolo[1,5-a]pyrimidin-7(4H)-one]
81.3 µM | O=c1cc(C2CCOCC2)[nH]c2ncnn12 [Example 8-20, 5-(tetrahydro-2H-pyran-4-yl)[1,2,4]triazolo[1,5-a]pyrimidin-7(4H)-one]
4.1 µM | O=c1cc(-c2ccoc2)[nH]c2ncnn12 [Example 8-21, 5-furan-3-yl[1,2,4]triazolo[1,5-a]pyrimidin-7(4H)-one]
18.9 µM | O=c1cc(-c2ccncc2)[nH]c2ncnn12 [Example 8-22, 5-pyridin-4-yl[1,2,4]triazolo[1,5-a]pyrimidin-7(4H)-one]
2.42 µM | O=c1cc(-c2ccccn2)[nH]c2ncnn12 [Example 8-23, 5-pyridin-2-yl[1,2,4]triazolo[1,5-a]pyrimidin-7(4H)-one]
6.79 µM | O=c1cc(-c2ccco2)[nH]c2ncnn12 [Example 8-24, 5-furan-2-yl[1,2,4]triazolo[1,5-a]pyrimidin-7(4H)-one]
17.9 µM | Cc1[nH]c2ncnn2c(=O)c1F [Example 8-25, 6-fluoro-5-methyl[1,2,4]triazolo[1,5-a]pyrimidin-7(4H)-one]
1.39 µM | O=c1cc(-c2ccc(Cl)cc2)[nH]c2ncnn12 [Example 8-26, 5-(4-chlorophenyl)[1,2,4]triazolo[1,5-a]pyrimidin-7(4H)-one]
